System: patients with MDD and an inadequate response to an SSRI or SNRI
Experiment: Massachusetts General Hospital Sexual Functioning Index (MGH-SFI), Study ACP-103-042
Type: in vivo, human
Text: “Massachusetts General Hospital Sexual Functioning Index (MGH-SFI)” is described, for instance, in Labbate and Lare, 2001, Psychother Psychosom. 70(4):221-225. This is a patient facing questionnaire that quantifies sexual dysfunction into 5 functional domains (“interest in sex,” “sexual arousal,” “ability to achieve orgasm,” “ability to maintain erection” (males only), and “sexual satisfaction”). Patients rate each item using a 6-point scale ranging from 1 (good function) to 6 (poor function). High scores indicate poor sexual functioning. […] The determination of the subject's status and eligibility for randomization in Stage 2 was made in a double-blind manner. […] Sexual functioning was assessed using the Massachusetts General Hospital Sexual Functioning Index or MGH-SFI (Labbate and Lare, 2001, Psychother Psychosom. 70(4):221-225). This is a patient facing questionnaire that quantifies sexual dysfunction into 5 functional domains (“interest in sex,” “sexual arousal,” “ability to achieve orgasm,” “ability to maintain erection” [malesonly], and “sexual satisfaction”). Patients rate each item using a 6-point scale ranging from 1 (good function) to 6 (poor function). The time frame for this scale is the past month. This scale was administered at baseline and Week 5 in both stages of the study. High scores indicate poor sexual functioning. In ACP-103-042 the mean scores for MGH-SFI at Baseline was calculated over all 5 domains for males and the 4 domains for females. For MGH-SFI (follow-up version) at Study Weeks 5 and 10, the mean was calculated in the same way as MGH-SFI at Baseline. […] Tables 10-27 summarize the detailed data of MGH-SFI individual items of the overall study group (Tables 10-15), the subgroup of age of <=50 (Tables 16-21) and the subgroup of age of >50 (Table 21-26). In Tables 9-26, ANCOVA=analysis of covariance; OC=observed cases; LSM=least squares mean; CI=confidence interval; SD=standard deviation; SE=standard error. Stage 1: Baseline=Study Week 0, Week 5=Study Week 5; Stage 2: Baseline=Study Week 5, Week 5=Study Weeks 10. LSM from the stage-specific ANCOVA analysis with the change from baseline as the outcome, treatment group as a factor, and the corresponding Baseline value as a covariate. 2-sided p-value for treatment difference from the stage-specific ANCOVA analysis. An treatment effect size (Cohen's d) is calculated using the formula: Effect Size=Least Square mean difference between PIM and PBO/SD. The corresponding 95% confidence interval for an effect size is calculated based on the theoretical probability distribution of the effect size. […] Tables 10-15 and 28-38 summarize the detailed data of MGH-SFI individual items of the overall study group (Tables 10-15), the female subgroup (Tables 33-37) and the male subgroup (Table 38-43). An treatment effect size (Cohen's d) is calculated using the formula: Effect Size=Least Square mean difference between PIM and PBO/SD. The corresponding 95% confidence interval for an effect size is calculated based on the theoretical probability distribution of the effect size. In Tables 10-15 and 28-38, ANCOVA=analysis of covariance; OC=observed cases; LSM=least squares mean; CI=confidence interval; SD=standard deviation; SE=standard error. Stage 1: Baseline=Study Week 0, Week 5=Study Week 5; Stage 2: Baseline=Study Week 5, Week 5=Study Weeks 10. LSM from the stage-specific ANCOVA analysis with the change from baseline as the outcome, treatment group as a factor, and the corresponding Baseline value as a covariate. 2-sided p-value for treatment difference from the stage-specific ANCOVA analysis. An treatment effect size (Cohen's d) is calculated using the formula: Effect Size=Least Square mean difference between PIM and PBO/SD. The corresponding 95% confidence interval for an effect size is calculated based on the theoretical probability distribution of the effect size.

[1] = female subgroup, Stage 2, positive = pimavanserin better than placebo
[2] = male subgroup, Stage 1 (Study Week 0 to 5), PIM 34 mg
[3] = male subgroup, Stage 1 (Study Week 5), PIM 34 mg
[4] = male subgroup, Stage 1, PIM 34 mg
[5] = male subgroup, Stage 1, PIM 34 mg vs placebo, change from baseline to Week 5
[6] = male subgroup, Stage 1, PIM 34 mg, Week 5
[7] = male subgroup, Stage 2 (Study Week 5 to 10), PIM 34 mg
[8] = male subgroup, Stage 2 (Study Week 10), PIM 34 mg

`CC(C)COc1ccc(CNC(=O)N(Cc2ccc(F)cc2)C2CCN(C)CC2)cc1` [pimavanserin, N-(4-Fluorophenylmethyl)-N-(1-methylpiperidin-4-yl)-N′-(4-(2-methylpropyloxy)phenylmethyl)carbamide] was tested, and the “MGH-SFI 05: Overall Sexual Satisfaction, Effect Size (Cohen's d)” value [1] was 0.227, the “MGH-SFI 06: Overall Improvement Since Last Medication Change, Effect Size (Cohen's d)” value [1] was 0.167 and the “MGH-SFI 01: Interest in Sex, Change from Baseline to Week 5 Mean (SE)” value [2] was −0.6 (1.04). The “MGH-SFI 01: Interest in Sex, Change from Baseline to Week 5 Median” value [2] was −1.0, the “MGH-SFI 01: Interest in Sex, Week 5 Mean (SE)” value [3] was 4.1 (0.63) and the “MGH-SFI 01: Interest in Sex, Week 5 Median” value [3] was 5.0. For the same compound, the “MGH-SFI Item 02: Ability to Get Sexually Aroused or Excited, Change from Baseline to Week 5, Mean (SE)” value [4] was −0.7 (0.61), the “MGH-SFI Item 02: Ability to Get Sexually Aroused or Excited, Change from Baseline to Week 5, Median” value [4] was 0.0 and the “MGH-SFI Item 03: Ability to Achieve Orgasm, Change from Baseline to Week 5, Mean (SE)” value [4] was −0.4 (0.61). The “MGH-SFI Item 03: Ability to Achieve Orgasm, Change from Baseline to Week 5, Median” value [4] was 0.0, the “MGH-SFI Item 04: (Men) Ability to Get and Maintain an Erection, Change from Baseline to Week 5, Mean (SE)” value [4] was −0.3 (0.78) and the “MGH-SFI Item 04: (Men) Ability to Get and Maintain an Erection, Change from Baseline to Week 5, Median” value [4] was 0.0. For the same compound, the “MGH-SFI Item 05: Overall Sexual Satisfaction, Change from Baseline to Week 5, Mean (SE)” value [4] was −0.6 (0.81), the “MGH-SFI Item 05: Overall Sexual Satisfaction, Change from Baseline to Week 5, Median” value [4] was 0.0 and the “MGH-SFI Item 06: Overall Improvement Since Last Medication Change, Effect Size (Cohen's d)” value (male subgroup, Stage 1, PIM 34 mg vs placebo, Week 5) was 0.257. The “MGH-SFI Item 02: Ability to Get Sexually Aroused or Excited, Effect Size (Cohen's d)” value [5] was 0.358, the “MGH-SFI Item 03: Ability to Achieve Orgasm, Effect Size (Cohen's d)” value [5] was 0.053 and the “MGH-SFI Item 04: (Men) Ability to Get and Maintain an Erection, Effect Size (Cohen's d)” value [5] was 0.105. For the same compound, the “MGH-SFI Item 05: Overall Sexual Satisfaction, Effect Size (Cohen's d)” value [5] was 0.047, the “MGH-SFI Item 02: Ability to Get Sexually Aroused or Excited, Week 5, Mean (SE)” value [6] was 3.7 (0.68) and the “MGH-SFI Item 02: Ability to Get Sexually Aroused or Excited, Week 5, Median” value [6] was 4.0. The “MGH-SFI Item 03: Ability to Achieve Orgasm, Week 5, Mean (SE)” value [6] was 4.1 (0.74), the “MGH-SFI Item 03: Ability to Achieve Orgasm, Week 5, Median” value [6] was 5.0 and the “MGH-SFI Item 04: (Men) Ability to Get and Maintain an Erection, Week 5, Mean (SE)” value [6] was 3.9 (0.70). The “MGH-SFI Item 04: (Men) Ability to Get and Maintain an Erection, Week 5, Median” value [6] was 3.0, the “MGH-SFI Item 05: Overall Sexual Satisfaction, Week 5, Mean (SE)” value [6] was 4.6 (0.69) and the “MGH-SFI Item 05: Overall Sexual Satisfaction, Week 5, Median” value [6] was 5.0. For the same compound, the “MGH-SFI Item 06: Overall Improvement Since Last Medication Change, Week 5, Mean (SE)” value [6] was 3.3 (0.64), the “MGH-SFI Item 06: Overall Improvement Since Last Medication Change, Week 5, Median” value [6] was 3.0 and the “MGH-SFI 01: Interest in Sex, Effect Size (Cohen's d)” value (male subgroup, Stage 1, positive = pimavanserin better than placebo) was 0.104. The “MGH-SFI 01: Interest in Sex, Change from Baseline to Week 5 Mean (SE)” value [7] was −0.8 (0.32), the “MGH-SFI 01: Interest in Sex, Change from Baseline to Week 5 Median” value [7] was −1.0 and the “MGH-SFI 01: Interest in Sex, Week 5 Mean (SE)” value [8] was 3.6 (0.47). For the same compound, the “MGH-SFI 01: Interest in Sex, Week 5 Median” value [8] was 4.0 and the “MGH-SFI Item 02: Ability to Get Sexually Aroused or Excited, Change from Baseline to Week 5, Mean (SE)” value (male subgroup, Stage 2, PIM 34 mg) was −0.6 (0.29).
